Measurements from ChEMBL document CHEMBL1131109, “Modeling RNA-ligand interactions: the Rev-binding element RNA-aminoglycoside complex” (1998).
≈ marks a conversion by molar mass, not a printed value.

test system: Human rhinovirus sp.; test: Compound was tested for minimum inhibitory concentration against human rhinovirus 14 (HRV14); format: functional

SMILES | MIC
Cc1cc(CCCCCOc2ccc(C3=NCCO3)cc2)on1 | 0.5 µM (≈ 0.157 µg/mL)
Cc1cc(CCCCCCCOc2ccc(C3=NC[C@@H](C)O3)cc2)on1 | 0.03 µM (≈ 0.0107 µg/mL)
Cc1cc(CCCCCOc2ccc(C3=NCCO3)cc2Cl)on1 | 2.4 µM (≈ 0.837 µg/mL)
CC[C@@H]1CN=C(c2ccc(OCCCCCCCc3cc(C)no3)cc2)O1 | 0.02 µM (≈ 0.00741 µg/mL)
Cc1cc(CCCCCCCOc2ccc(C3=NCCO3)cc2)on1 [DISOXARIL] | 0.6 µM (≈ 0.205 µg/mL)
Cc1cc(CCCCCCCOc2ccc(C3=NC[C@H](C)O3)cc2)on1 | 0.4 µM (≈ 0.143 µg/mL)
Cc1cc(CCCCCCCOc2ccc(C3=NC[C@@H](C)O3)cc2Cl)on1 | 0.2 µM (≈ 0.0782 µg/mL)
Cc1cc(CCCCCOc2ccc(C3=NC[C@@H](C)O3)cc2)on1 | 0.6 µM (≈ 0.197 µg/mL)

test system: Nucleic Acid; test: Compound was tested for the inhibition of Rev-RBE RNA complex formation; format: functional

SMILES | MIC
NC[C@H]1O[C@H](O[C@H]2[C@H](O)[C@@H](O[C@H]3O[C@H](CO)[C@@H](O)[C@H](N)[C@H]3O)[C@H](N)C[C@@H]2N)[C@H](N)[C@@H](O)[C@@H]1O | 100 µM (≈ 48.4 µg/mL)
CN[C@@H]1[C@@H](O)[C@@H](O[C@@H]2[C@@H](O)[C@H](O[C@H]3OC(CN)=CC[C@H]3N)[C@@H](N)C[C@H]2N)OC[C@]1(C)O | > 100 µM
NC[C@H]1O[C@H](O[C@H]2[C@H](O)[C@@H](O[C@H]3O[C@H](CO)[C@@H](O)[C@H](N)[C@H]3O)[C@H](N)C[C@@H]2N)[C@H](N)C[C@@H]1O | 10 µM (≈ 4.68 µg/mL)
NC[C@@H]1O[C@H](O[C@H]2[C@@H](O)[C@H](O[C@@H]3[C@@H](O)[C@H](N)C[C@H](N)[C@H]3O[C@H]3O[C@H](CN)[C@@H](O)[C@H](O)[C@H]3N)O[C@@H]2CO)[C@H](N)[C@@H](O)[C@@H]1O | 1 µM (≈ 0.615 µg/mL)
NC[C@H]1O[C@H](O[C@H]2[C@H](O)[C@@H](O)[C@H](N)C[C@@H]2N)[C@H](N)[C@@H](O)[C@@H]1O | > 100 µM
CNC1C(O)C(OC2C(N)CC(N)C(OC3OC(CN)CCC3N)C2O)OCC1(C)O (stereo not drawn) | 100 µM (≈ 45 µg/mL)
NC[C@@H]1O[C@H](O[C@H]2[C@@H](O)[C@H](O[C@@H]3[C@@H](O)[C@H](N)C[C@H](N)[C@H]3O[C@H]3O[C@H](CO)[C@@H](O)C[C@H]3N)O[C@@H]2CO)[C@H](N)[C@@H](O)[C@@H]1O[C@H]1O[C@H](CO)[C@@H](O)[C@H](O)[C@@H]1O | 10 µM (≈ 7.62 µg/mL)
NC[C@H]1O[C@H](O[C@H]2[C@H](O[C@@H]3O[C@H](CO)[C@@H](O)[C@H]3O)[C@@H](O)[C@H](N)C[C@@H]2N)[C@H](N)[C@@H](O)[C@@H]1O | 100 µM (≈ 45.4 µg/mL)
NC[C@@H]1O[C@@H](O[C@H]2[C@H](O)[C@@H](O[C@H]3O[C@H](CO)[C@@H](O)[C@H](N)[C@H]3O)[C@H](N)C[C@@H]2N)[C@@H](O)[C@H](O)[C@H]1O | > 100 µM
NC[C@@H]1O[C@H](O[C@H]2[C@@H](O)[C@H](O[C@@H]3[C@@H](O)[C@H](N)C[C@H](N)[C@H]3O[C@H]3O[C@H](CO)[C@@H](O)[C@H](O)[C@H]3N)O[C@@H]2CO)[C@H](N)[C@@H](O)[C@@H]1O | > 100 µM
